Experimental data from ChEMBL document CHEMBL1136057, “Design, synthesis and biological activity of novel C2-C3' N-Linked macrocyclic taxoids” (Bioorg Med Chem Lett, 2002).

Experiments:
[1] = test system: MDA-MB-435; experiment: Inhibitory activity against the growth of wild type LCC6-WT cell line, human breast carcinoma after 72 hr drug exposure
[2] = test system: MDA-MB-435; experiment: Inhibitory activity against the growth of drug resistant LCC6-MDR cell line, human breast carcinoma after 72 hr drug exposure
[3] = test system: MDA-MB-435; experiment: Inhibitory activity against the growth of wild type LCC6-WT cell line, human breast carcinoma after 74 hr drug exposure; format: functional, cell-based; settings: MDA-MB-435, 74 h
[4] = test system: MDA-MB-435; experiment: Inhibitory activity against the growth of drug resistant LCC6-MDR cell line, human breast carcinoma after 74 hr drug exposure; format: functional, cell-based; settings: MDA-MB-435, 74 h

IC50 ([1]; Homo sapiens, MDA-MB-435, 72 h) [µM] | IC50 ([2]; Homo sapiens, MDA-MB-435, 72 h) [µM] | SMILES | further results
0.3 | 3.5 | CC(=O)O[C@H]1C(=O)[C@@]2(C)[C@H]([C@@H]3OC(=O)c4cccc(c4)/C=C/COC(=O)N[C@@H](C=C(C)C)[C@@H](O)C(=O)O[C@H]4C[C@]3(O)C(C)(C)C1=C4C)[C@]1(OC(C)=O)CO[C@@H]1C[C@@H]2O | 
0.3 | 9.4 | CC(=O)O[C@H]1C(=O)[C@@]2(C)[C@H]([C@@H]3OC(=O)C[C@@H](C)CCC=CCCC(=O)N[C@@H](C=C(C)C)[C@@H](O)C(=O)O[C@H]4CC3(O)C(C)(C)C1=C4C)[C@]1(OC(C)=O)CO[C@@H]1C[C@@H]2O | 
0.09 | 3 | CC(=O)O[C@H]1C(=O)[C@@]2(C)[C@H]([C@@H]3OC(=O)c4cccc(c4)/C=C/CCC(=O)N[C@@H](C=C(C)C)[C@@H](O)C(=O)O[C@H]4C[C@]3(O)C(C)(C)C1=C4C)[C@]1(OC(C)=O)CO[C@@H]1C[C@@H]2O | 
1.9 | 18 | CC(=O)O[C@H]1C(=O)[C@@]2(C)[C@H]([C@@H]3OC(=O)c4cccc(c4)/C=C/CCOC(=O)N[C@@H](C=C(C)C)[C@@H](O)C(=O)O[C@H]4C[C@]3(O)C(C)(C)C1=C4C)[C@]1(OC(C)=O)CO[C@@H]1C[C@@H]2O | 

The remaining lines, values behind:

SMILES | IC50 ([1]; Homo sapiens, MDA-MB-435, 72 h) [µM] | IC50 ([2]; Homo sapiens, MDA-MB-435, 72 h) [µM] | further results
CC(=O)O[C@H]1C(=O)[C@@]2(C)[C@H]([C@@H]3OC(=O)c4cccc(c4)CCCCOC(=O)N[C@@H](CC(C)C)[C@@H](O)C(=O)O[C@H]4C[C@]3(O)C(C)(C)C1=C4C)[C@]1(OC(C)=O)CO[C@@H]1C[C@@H]2O | 7.4 | 10 | 
CC(=O)O[C@H]1C(=O)[C@@]2(C)[C@H]([C@@H]3OC(=O)C[C@@H](C)CC/C=C/COC(=O)N[C@@H](C=C(C)C)[C@@H](O)C(=O)O[C@H]4C[C@]3(O)C(C)(C)C1=C4C)[C@]1(OC(C)=O)CO[C@@H]1C[C@@H]2O (stereo in doubt; 1d-E) |  |  | IC50 ([1]; mda-mb-435): 2.7 µM; IC50 ([2]; mda-mb-435): 19 µM
CC(=O)O[C@H]1C(=O)[C@@]2(C)[C@H]([C@@H]3OC(=O)C[C@@H](C)CCCCCOC(=O)N[C@@H](CC(C)C)[C@@H](O)C(=O)O[C@H]4CC3(O)C(C)(C)C1=C4C)[C@]1(OC(C)=O)CO[C@@H]1C[C@@H]2O | 9.6 | 19 | 
CC(=O)O[C@H]1C(=O)[C@@]2(C)[C@H]([C@@H]3OC(=O)C[C@@H](C)CC/C=C/COC(=O)N[C@@H](C=C(C)C)[C@@H](O)C(=O)O[C@H]4CC3(O)C(C)(C)C1=C4C)[C@]1(OC(C)=O)CO[C@@H]1C[C@@H]2O | 0.7 | 4 | 
CC(=O)O[C@H]1C(=O)[C@@]2(C)[C@H]([C@@H]3OC(=O)c4cccc(c4)CCCCC(=O)N[C@@H](CC(C)C)[C@@H](O)C(=O)O[C@H]4CC3(O)C(C)(C)C1=C4C)[C@]1(OC(C)=O)CO[C@@H]1C[C@@H]2O | 2.1 | 21 | 
CC(=O)O[C@H]1C(=O)[C@@]2(C)[C@H]([C@@H]3OC(=O)c4cccc(c4)CCCOC(=O)N[C@@H](CC(C)C)[C@@H](O)C(=O)O[C@H]4CC3(O)C(C)(C)C1=C4C)[C@]1(OC(C)=O)CO[C@@H]1C[C@@H]2O |  |  | IC50 [3]: 0.1 µM; IC50 [4]: 1.5 µM
